Patent US20260193293A1, “PEPTIDES CAPABLE OF INHIBITING PROTEIN-PROTEIN INTERACTIONS AT GABAB1A SUBUNIT AND USES THEREOF” (UNIVERSITY OF COPENHAGEN, priority 2022, published 2026)
Read-outs that look alike come from different tables or passages of the source. Non-standard residues stand in square brackets, D forms with d. Residues, ends and D or L forms follow the SMILES beside them. NMeR = CN[C@@H](CCCNC(=N)N)C(=O)O; NMeT = CN[C@H](C(=O)O)[C@@H](C)O; NMeE = CN[C@@H](CCC(=O)O)C(=O)O; NMeD = CN[C@@H](CC(=O)O)C(=O)O; NMeV = CN[C@H](C(=O)O)C(C)C; NMeS = CN[C@@H](CO)C(=O)O

Molecular target: Sushi domains (SD1/2) protein
Test: Fluorescence polarization (FP) competition assay with AJAP-1probe, calculated Ki
Format: binding
Conditions: read-out: Ki (nM) mean ± SEM
Method in brief: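 Ki values were derived from IC50s (sigmoidal fits, ≥ triplicate), with probe Kd obtained by saturation titration of SD1/2. Peptides displaced a 25 nM TAMRA-labelled probe; polarization read at 530/580 nm in 1% BSA-containing PBS, pH 7.4, room temperature.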

[1] = Table 6, elongation and truncation scan of PIANP binding epitope
[2] = Table 9, Ala-, D-amino acids and N-methylation scans of PIANPWT

Row | Ki [1] | Ki [2] | Ki (Table 14, CPPs tagged peptides) | Compound
1 | 716 ± 6 nM | – | – | CC[C@H](C)[C@H](NC(=O)[C@H](C)NC(=O)[C@H](Cc1c[nH]c2ccccc12)NC(=O)[C@@H]1CCCN1C(C)=O)C(=O)N[C@H](C(=O)N[C@@H](Cc1c[nH]c2ccccc12)C(=O)NCC(=O)N1CCC[C@H]1C(=O)N[C@H](C(=O)N[C@H](C(=O)N[C@@H](CO)C(=O)N[C@@H](CCCNC(=N)N)C(=O)N[C@@H](CCC(=O)O)C(=O)N[C@@H](CC(=O)O)C(=O)NCC(=O)NCC(=O)N[C@@H](CC(=O)O)C(N)=O)C(C)C)[C@@H](C)O)C(C)C (Ac-PWAIVWGPTVSREDGGD-NH2)
2 | 597 ± 7 nM | – | – | CC[C@H](C)[C@H](NC(=O)[C@H](C)NC(=O)[C@H](Cc1c[nH]c2ccccc12)NC(=O)[C@@H]1CCCN1C(C)=O)C(=O)N[C@H](C(=O)N[C@@H](Cc1c[nH]c2ccccc12)C(=O)NCC(=O)N1CCC[C@H]1C(=O)N[C@H](C(=O)N[C@H](C(=O)N[C@@H](CO)C(=O)N[C@@H](CCCNC(=N)N)C(=O)N[C@@H](CCC(=O)O)C(=O)N[C@@H](CC(=O)O)C(=O)NCC(=O)NCC(=O)N[C@@H](CC(=O)O)C(=O)N1CCC[C@H]1C(N)=O)C(C)C)[C@@H](C)O)C(C)C (Ac-PWAIVWGPTVSREDGGDP-NH2)
3 | 579 ± 21 nM | – | – | CC[C@H](C)[C@H](NC(=O)[C@H](C)NC(=O)[C@H](Cc1c[nH]c2ccccc12)NC(=O)[C@@H]1CCCN1C(C)=O)C(=O)N[C@H](C(=O)N[C@@H](Cc1c[nH]c2ccccc12)C(=O)NCC(=O)N1CCC[C@H]1C(=O)N[C@H](C(=O)N[C@H](C(=O)N[C@@H](CO)C(=O)N[C@@H](CCCNC(=N)N)C(=O)N[C@@H](CCC(=O)O)C(=O)N[C@@H](CC(=O)O)C(=O)NCC(=O)NCC(=O)N[C@@H](CC(=O)O)C(=O)N1CCC[C@H]1C(=O)N[C@@H](CC(N)=O)C(N)=O)C(C)C)[C@@H](C)O)C(C)C (Ac-PWAIVWGPTVSREDGGDPN-NH2)
4 | 706 ± 16 nM | – | – | CC[C@H](C)[C@H](NC(=O)[C@H](C)NC(=O)[C@H](Cc1c[nH]c2ccccc12)NC(=O)[C@@H]1CCCN1C(C)=O)C(=O)N[C@H](C(=O)N[C@@H](Cc1c[nH]c2ccccc12)C(=O)NCC(=O)N1CCC[C@H]1C(=O)N[C@H](C(=O)N[C@H](C(=O)N[C@@H](CO)C(=O)N[C@@H](CCCNC(=N)N)C(=O)N[C@@H](CCC(=O)O)C(=O)N[C@@H](CC(=O)O)C(=O)NCC(=O)NCC(=O)N[C@@H](CC(=O)O)C(=O)N1CCC[C@H]1C(=O)N[C@@H](CC(N)=O)C(=O)N[C@@H](CO)C(N)=O)C(C)C)[C@@H](C)O)C(C)C (Ac-PWAIVWGPTVSREDGGDPNS-NH2)
5 | – | 434 ± 10 nM | – | CC[C@H](C)[C@H](NC(=O)[C@H](C)NC(=O)[C@H](Cc1c[nH]c2ccccc12)NC(=O)[C@@H]1CCCN1C(C)=O)C(=O)N[C@H](C(=O)N[C@@H](Cc1c[nH]c2ccccc12)C(=O)NCC(=O)N1CCC[C@H]1C(=O)N[C@H](C(=O)N[C@H](C(=O)N[C@@H](CO)C(=O)N[C@@H](CCCNC(=N)N)C(=O)N[C@@H](CCC(=O)O)C(=O)N(C)[C@@H](CC(=O)O)C(N)=O)C(C)C)[C@@H](C)O)C(C)C (Ac-PWAIVWGPTVSRE[NMeD]-NH2)
6 | – | 523 ± 13 nM | – | CC[C@H](C)[C@H](NC(=O)[C@H](C)NC(=O)[C@H](Cc1c[nH]c2ccccc12)NC(=O)[C@@H]1CCCN1C(C)=O)C(=O)N[C@H](C(=O)N[C@@H](Cc1c[nH]c2ccccc12)C(=O)NCC(=O)N1CCC[C@H]1C(=O)N[C@H](C(=O)N[C@H](C(=O)N[C@@H](CO)C(=O)N[C@@H](CCCNC(=N)N)C(=O)N(C)[C@@H](CCC(=O)O)C(=O)N[C@@H](CC(=O)O)C(N)=O)C(C)C)[C@@H](C)O)C(C)C (Ac-PWAIVWGPTVSR[NMeE]D-NH2)
7 | – | 502 ± 15 nM | – | CC[C@H](C)[C@H](NC(=O)[C@H](C)NC(=O)[C@H](Cc1c[nH]c2ccccc12)NC(=O)[C@@H]1CCCN1C(C)=O)C(=O)N[C@H](C(=O)N[C@@H](Cc1c[nH]c2ccccc12)C(=O)NCC(=O)N1CCC[C@H]1C(=O)N[C@H](C(=O)N[C@H](C(=O)N[C@@H](CO)C(=O)N(C)[C@@H](CCCNC(=N)N)C(=O)N[C@@H](CCC(=O)O)C(=O)N[C@@H](CC(=O)O)C(N)=O)C(C)C)[C@@H](C)O)C(C)C (Ac-PWAIVWGPTVS[NMeR]ED-NH2)
8 | – | 1045 ± 1 nM | – | CC[C@H](C)[C@H](NC(=O)[C@H](C)NC(=O)[C@H](Cc1c[nH]c2ccccc12)NC(=O)[C@@H]1CCCN1C(C)=O)C(=O)N[C@H](C(=O)N[C@@H](Cc1c[nH]c2ccccc12)C(=O)NCC(=O)N1CCC[C@H]1C(=O)N[C@H](C(=O)N[C@H](C(=O)N(C)[C@@H](CO)C(=O)N[C@@H](CCCNC(=N)N)C(=O)N[C@@H](CCC(=O)O)C(=O)N[C@@H](CC(=O)O)C(N)=O)C(C)C)[C@@H](C)O)C(C)C (Ac-PWAIVWGPTV[NMeS]RED-NH2)
9 | – | 1780 ± 87 nM | – | CC[C@H](C)[C@H](NC(=O)[C@H](C)NC(=O)[C@H](Cc1c[nH]c2ccccc12)NC(=O)[C@@H]1CCCN1C(C)=O)C(=O)N[C@H](C(=O)N[C@@H](Cc1c[nH]c2ccccc12)C(=O)NCC(=O)N1CCC[C@H]1C(=O)N[C@H](C(=O)N(C)[C@H](C(=O)N[C@@H](CO)C(=O)N[C@@H](CCCNC(=N)N)C(=O)N[C@@H](CCC(=O)O)C(=O)N[C@@H](CC(=O)O)C(N)=O)C(C)C)[C@@H](C)O)C(C)C (Ac-PWAIVWGPT[NMeV]SRED-NH2)
10 | – | 1260 ± 27 nM | – | CC[C@H](C)[C@H](NC(=O)[C@H](C)NC(=O)[C@H](Cc1c[nH]c2ccccc12)NC(=O)[C@@H]1CCCN1C(C)=O)C(=O)N[C@H](C(=O)N[C@@H](Cc1c[nH]c2ccccc12)C(=O)NCC(=O)N1CCC[C@H]1C(=O)N(C)[C@H](C(=O)N[C@H](C(=O)N[C@@H](CO)C(=O)N[C@@H](CCCNC(=N)N)C(=O)N[C@@H](CCC(=O)O)C(=O)N[C@@H](CC(=O)O)C(N)=O)C(C)C)[C@@H](C)O)C(C)C (Ac-PWAIVWGP[NMeT]VSRED-NH2)
11 | 650 ± 9 nM | – | – | CC[C@H](C)[C@H](NC(=O)[C@H](C)NC(=O)[C@H](Cc1c[nH]c2ccccc12)NC(=O)[C@@H]1CCCN1C(=O)[C@H](Cc1ccc(O)cc1)NC(=O)[C@H](CCC(N)=O)NC(C)=O)C(=O)N[C@H](C(=O)N[C@@H](Cc1c[nH]c2ccccc12)C(=O)NCC(=O)N1CCC[C@H]1C(=O)N[C@H](C(=O)N[C@H](C(=O)N[C@@H](CO)C(=O)N[C@@H](CCCNC(=N)N)C(=O)N[C@@H](CCC(=O)O)C(=O)N[C@@H](CC(=O)O)C(=O)NCC(N)=O)C(C)C)[C@@H](C)O)C(C)C (Ac-QYPWAIVWGPTVSREDG-NH2)
12 | – | – | 32 ± 1 nM | CC[C@H](C)[C@H](NC(=O)[C@H](Cc1c[nH]c2ccccc12)NC(=O)[C@H](CC(=O)O)NC(=O)[C@H](CC(=O)O)NC(=O)[C@H](CC(=O)O)NC(=O)[C@H](CCC(=O)O)NC(=O)[C@H](CCCNC(=N)N)NC(=O)[C@H](CCCNC(=N)N)NC(=O)[C@H](CCCNC(=N)N)NC(=O)[C@H](CCCNC(=N)N)NC(=O)[C@H](CCCNC(=N)N)NC(C)=O)C(=O)N[C@@H](CC(=O)O)C(=O)N[C@@H](Cc1c[nH]c2ccccc12)C(=O)NCC(=O)N1CCC[C@H]1C(=O)N[C@H](C(=O)N[C@@H](CO)C(=O)N[C@@H](CC(=O)O)C(=O)N[C@@H](CC(=O)O)C(=O)N[C@@H](CC(=O)O)C(N)=O)[C@@H](C)O (Ac-RRRRREDDDWIDWGPTSDDD-NH2)
13 | – | – | 39.5 ± 2 nM | CC[C@H](C)[C@H](NC(=O)[C@H](Cc1c[nH]c2ccccc12)NC(=O)[C@H](CC(=O)O)NC(=O)[C@H](CC(=O)O)NC(=O)[C@H](CC(=O)O)NC(=O)[C@H](CCC(=O)O)NC(=O)[C@H](CCCNC(=N)N)NC(=O)[C@H](CCCNC(=N)N)NC(=O)[C@H](CCCNC(=N)N)NC(=O)[C@H](CCCNC(=N)N)NC(=O)[C@H](CCCNC(=N)N)NC(C)=O)C(=O)N[C@@H](CC(=O)O)C(=O)N[C@@H](Cc1c[nH]c2ccccc12)C(=O)N[C@@H](Cc1ccc(O)cc1)C(=O)N[C@@H](CC(=O)O)C(=O)N[C@@H](CO)C(=O)N[C@@H](CC(=O)O)C(=O)N[C@@H](CC(=O)O)C(=O)N[C@@H](CC(=O)O)C(N)=O (Ac-RRRRREDDDWIDWYDSDDD-NH2)
14 | – | – | 43.4 ± 1 nM | CC[C@H](C)[C@H](NC(=O)[C@H](Cc1c[nH]c2ccccc12)NC(=O)[C@H](CC(=O)O)NC(=O)[C@H](CC(=O)O)NC(=O)[C@H](CC(=O)O)NC(=O)[C@H](CCC(=O)O)NC(=O)[C@H](CCCNC(=N)N)NC(=O)[C@H](CCCNC(=N)N)NC(=O)[C@H](CCCNC(=N)N)NC(=O)[C@H](CCCNC(=N)N)NC(=O)[C@H](CCCNC(=N)N)NC(=O)[C@H](CCCNC(=N)N)NC(C)=O)C(=O)N[C@@H](CC(=O)O)C(=O)N[C@@H](Cc1c[nH]c2ccccc12)C(=O)NCC(=O)N1CCC[C@H]1C(=O)N[C@H](C(=O)N[C@@H](CO)C(=O)N[C@@H](CC(=O)O)C(=O)N[C@@H](CC(=O)O)C(=O)N[C@@H](CC(=O)O)C(N)=O)[C@@H](C)O (Ac-RRRRRREDDDWIDWGPTSDDD-NH2)
15 | – | – | 70.9 ± 1 nM | CC[C@H](C)[C@H](NC(=O)[C@H](Cc1c[nH]c2ccccc12)NC(=O)[C@H](CC(=O)O)NC(=O)[C@H](CC(=O)O)NC(=O)[C@H](CC(=O)O)NC(=O)[C@H](CCC(=O)O)NC(=O)[C@H](CCCNC(=N)N)NC(=O)[C@H](CCCNC(=N)N)NC(=O)[C@H](CCCNC(=N)N)NC(=O)[C@H](CCCNC(=N)N)NC(=O)[C@H](CCCNC(=N)N)NC(=O)[C@H](CCCNC(=N)N)NC(C)=O)C(=O)N[C@@H](CC(=O)O)C(=O)N[C@@H](Cc1c[nH]c2ccccc12)C(=O)N[C@@H](Cc1ccc(O)cc1)C(=O)N[C@@H](CC(=O)O)C(=O)N[C@@H](CO)C(=O)N[C@@H](CC(=O)O)C(=O)N[C@@H](CC(=O)O)C(=O)N[C@@H](CC(=O)O)C(N)=O (Ac-RRRRRREDDDWIDWYDSDDD-NH2)
16 | – | – | 65 ± 2 nM | CC[C@H](C)[C@H](NC(=O)[C@H](Cc1c[nH]c2ccccc12)NC(=O)[C@H](CC(=O)O)NC(=O)[C@H](CC(=O)O)NC(=O)[C@H](CC(=O)O)NC(=O)[C@H](CCC(=O)O)NC(=O)[C@H](CCCNC(=N)N)NC(=O)[C@H](CCCNC(=N)N)NC(=O)[C@H](CCCNC(=N)N)NC(=O)[C@H](CCCNC(=N)N)NC(=O)[C@H](CCCNC(=N)N)NC(=O)[C@H](CCCNC(=N)N)NC(=O)[C@H](CCCNC(=N)N)NC(C)=O)C(=O)N[C@@H](CC(=O)O)C(=O)N[C@@H](Cc1c[nH]c2ccccc12)C(=O)NCC(=O)N1CCC[C@H]1C(=O)N[C@H](C(=O)N[C@@H](CO)C(=O)N[C@@H](CC(=O)O)C(=O)N[C@@H](CC(=O)O)C(=O)N[C@@H](CC(=O)O)C(N)=O)[C@@H](C)O (Ac-RRRRRRREDDDWIDWGPTSDDD-NH2)
